Source: US6875884B1, “Urea derivatives as inhibitors for CCR-3 receptor” (Kirin Beer Kabushiki Kaisha, priority 1999, dated 2005)

Molecular target: T1, CCR-3 (Homo sapiens, UniProt P51677)
T1 sequence (P51677 1-355): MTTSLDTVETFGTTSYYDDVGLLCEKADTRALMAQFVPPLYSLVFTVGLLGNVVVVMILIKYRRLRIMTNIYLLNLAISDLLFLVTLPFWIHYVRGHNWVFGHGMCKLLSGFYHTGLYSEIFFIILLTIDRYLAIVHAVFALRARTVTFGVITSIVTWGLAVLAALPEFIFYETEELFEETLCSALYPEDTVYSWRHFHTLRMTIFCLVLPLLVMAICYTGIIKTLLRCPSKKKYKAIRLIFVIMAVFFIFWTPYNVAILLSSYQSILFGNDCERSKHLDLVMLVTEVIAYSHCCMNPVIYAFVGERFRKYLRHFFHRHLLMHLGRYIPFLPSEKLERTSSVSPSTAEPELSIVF
Assay: Inhibition of eotaxin-induced chemotaxis of CCR-3 transfectant cells (CCR3/U937)
Assay type: cell-based
Set-up: expressed in transfected cells; host or cells: U937
Conditions: U-937, compound 10 μM, eotaxin 1×10^−9 M, Table 3a
Procedure: The inhibitory activity of the compounds against eotaxin-induced chemotaxis was determined by measuring the inhibition of migration of CCR-3 transfectant cells (CCR3/U937), using a minor modification of the method described by Ohashi, H. et al., Int Arch Allergy Immunol. (1999) 118, 44-50. CCR-3 transfectant cells were grown in PRMI1640 medium containing 10% fetal calf serum (FCS) and Geneticin 418 (0.8 mg/ml). For the assay, CCR-3 transfectant cells were isolated and resuspended at 1×10^7 cells/ml in assay medium (RPMI 1640 medium containing 0.1% bovine serum albumin (BSA)). The chemotaxis assay was performed in a 24-well culture plate. Human eotaxin suspended in assay medium was added to the wells at 1×10^−9 M along with test compounds at various concentrations. For a positive control, eotaxin was added to the wells without a test compound, and for a negative control, neither eotaxin nor a test compound was added to the walls. Chemotaxicell (Kurabo Co., Ltd.) having 5 micrometers pore size were inserted into each well and 100 micro liters of CCR-3 transfectant cells suspension were added to the top chamber. The plates were incubated at 37° C. for 1 hour. After incubation, migrated cells in lower wells were diluted and counted by particle size distribution analyzer (CDP-500, Sysmex Co., Ltd.)

Row | inhibition at 10 µM [%] | Structure (SMILES)
1 | 100 | O=C(O)CCCN(CCCNC(=S)Nc1ccc(Br)cc1)[C@@H]1CCCc2ccccc21 [Compound 290, 4-[[3(4-Bromophenylthioureido)propyl][(1R)-1,2,3,4-tetrahydro-1-naphthyl]amino]butanoic acid]
2 | 100 | O=C(O)CCCN(CC(O)CNC(=O)Nc1ccc(Br)cc1)C1CCCc2ccccc21 (centres unmarked) [Compound 167, 4-[[3-(4-bromophenylureido)-2-hydroxypropyl](1,2,3,4-tetrahydro-1-naphthyl)amino]butanoic acid]

Same assay, conditions: compound 10 μM, eotaxin 1×10^−9 M, Table 3a

Row | Chemotaxis Assay 10 μM (inhibition %) [%] | Structure (SMILES)
3 | 100 | COC(=O)CCCN(CCCNC(=S)Nc1ccc(Cl)c(Cl)c1)C1CCCc2ccccc21 (centres unmarked) [Compound 256]
4 | 100 | COC(=O)CCCN(CC[C@H](NC(=O)Nc1ccc(Br)cc1)C(=O)NCc1ccccc1)C1CCCc2ccccc21 (stereo partly drawn) [Compound 283, Methyl 4-[[(3S)-3-(4-bromophenylureido)-3-(benzylcarbamoyl)propyl](1,2,3,4-tetrahydro-1-naphthyl)amino]butylate]
5 | 100 | COC(=O)CCCN(CCCNC(=S)Nc1ccc(I)cc1)C1CCCc2ccccc21 (centres unmarked) [Compound 255]
6 | 100 | COC(=O)CCCN(CC[C@H](NC(=O)Nc1ccc(Br)cc1)C(=O)NC(C)C)C1CCCc2ccccc21 (stereo partly drawn) [Compound 282, methyl 4-[[(3S)-3-(4-bromophenylureido)-3-(isopropylcarbamoyl)propyl](1,2,3,4-tetrahydro-1-naphthyl)amino]butylate]
7 | 78 | COC(=O)CCCN(CCCNC(=O)Nc1ccc(Br)cc1)Cc1cccs1 [Compound 39]
8 | 100 | COC(=O)CCCN(CC[C@H](NC(=O)Nc1ccc(Br)cc1)C(=O)OC(C)(C)C)C1CCCc2ccccc21 (some centres unmarked) [Compound 281]
9 | 100 | CCN(CCCNC(=O)Nc1ccccc1OC)CCc1ccc(Cl)cc1 [Compound 9]
10 | 58 | COc1ccc(CN(CCCNC(=O)Nc2ccccc2)CCc2ccc(Cl)cc2)cc1 [Compound 18]
11 | 100 | CCN(CCCNC(=O)Nc1ccc(Cl)cc1)CCc1ccc(Cl)cc1 [Compound 6]
12 | 99 | Cc1ccc(NC(=S)NCCCN(CCCC(=O)O)C2CCCc3ccccc32)cc1 (centres unmarked) [Compound 250]
13 | 50 | COC(=O)CCCN(CCCNC(=O)Nc1ccc(Br)cc1)CCc1ccc(OC)c(OC)c1 [Compound 43]
14 | 100 | CC(c1ccccc1)N(CCCNC(=S)Nc1ccc(Br)cc1)CCCC(=O)O (centres unmarked) [Compound 289]
15 | 99 | O=C(O)CCCN(CCCNC(=S)Nc1cccc(Br)c1)C1CCCc2ccccc21 (centres unmarked) [Compound 247]
16 | 100 | O=C(O)CCCN(CCCNC(=S)Nc1ccc(Cl)c(Cl)c1)C1CCCc2ccccc21 (centres unmarked) [Compound 251]
17 | 88 | O=C(NCCCN(CCc1ccccc1)CCc1ccc(Cl)cc1)Nc1ccccc1 [Compound 25]
18 | 100 | O=C(O)CCCN(CC[C@H](NC(=O)Nc1ccc(Br)cc1)C(=O)NCc1ccccc1)C1CCCc2ccccc21 (stereo partly drawn) [Compound 287, 4-[[(3S)-3-(4-Bromophenylureido)-3-(benzylcarbamoyl)propyl](1,2,3,4-tetrahydro-1-naphthyl)amino]butanoic acid]
19 | 54 | COC(=O)CCCN(CCNC(=O)Nc1ccc(Br)cc1)C1CCCc2ccccc21 (centres unmarked) [Compound 50]
20 | 74 | COC(=O)CCCN(CCCNC(=S)Nc1cccc(Br)c1)C1CCCc2ccccc21 (centres unmarked) [Compound 253]
21 | 100 | O=C(O)CCCN(CCCNC(=S)Nc1ccc(Br)cc1)C1CCCc2ccccc21 (centres unmarked) [Compound 246]
22 | 100 | O=C(O)CCCN(CCCNC(=S)Nc1ccc(I)cc1)C1CCCc2ccccc21 (centres unmarked) [Compound 249]

Same assay, conditions: compound 10 μM, eotaxin 1×10^−9 M, Table 3c

Row | Chemotaxis Assay 10 μM (inhibition %) [%] | Structure (SMILES)
23 | 100 | CC[N+](CC)(CCCNC(=S)Nc1ccc(Br)cc1)CCc1ccc(Cl)cc1.[I-] [Compound 335]
